Results taken from US11737985B2 (priority 2013, dated 2023).
pIC50: −log10 of the molar value. Like-named read-outs stand apart in the source and are kept apart here.

Legend:
hNKCC1a = target: T1, hNKCC1a (Homo sapiens, UniProt P55011); conditions: cited from earlier work
T1 sequence (P55011 1-1212): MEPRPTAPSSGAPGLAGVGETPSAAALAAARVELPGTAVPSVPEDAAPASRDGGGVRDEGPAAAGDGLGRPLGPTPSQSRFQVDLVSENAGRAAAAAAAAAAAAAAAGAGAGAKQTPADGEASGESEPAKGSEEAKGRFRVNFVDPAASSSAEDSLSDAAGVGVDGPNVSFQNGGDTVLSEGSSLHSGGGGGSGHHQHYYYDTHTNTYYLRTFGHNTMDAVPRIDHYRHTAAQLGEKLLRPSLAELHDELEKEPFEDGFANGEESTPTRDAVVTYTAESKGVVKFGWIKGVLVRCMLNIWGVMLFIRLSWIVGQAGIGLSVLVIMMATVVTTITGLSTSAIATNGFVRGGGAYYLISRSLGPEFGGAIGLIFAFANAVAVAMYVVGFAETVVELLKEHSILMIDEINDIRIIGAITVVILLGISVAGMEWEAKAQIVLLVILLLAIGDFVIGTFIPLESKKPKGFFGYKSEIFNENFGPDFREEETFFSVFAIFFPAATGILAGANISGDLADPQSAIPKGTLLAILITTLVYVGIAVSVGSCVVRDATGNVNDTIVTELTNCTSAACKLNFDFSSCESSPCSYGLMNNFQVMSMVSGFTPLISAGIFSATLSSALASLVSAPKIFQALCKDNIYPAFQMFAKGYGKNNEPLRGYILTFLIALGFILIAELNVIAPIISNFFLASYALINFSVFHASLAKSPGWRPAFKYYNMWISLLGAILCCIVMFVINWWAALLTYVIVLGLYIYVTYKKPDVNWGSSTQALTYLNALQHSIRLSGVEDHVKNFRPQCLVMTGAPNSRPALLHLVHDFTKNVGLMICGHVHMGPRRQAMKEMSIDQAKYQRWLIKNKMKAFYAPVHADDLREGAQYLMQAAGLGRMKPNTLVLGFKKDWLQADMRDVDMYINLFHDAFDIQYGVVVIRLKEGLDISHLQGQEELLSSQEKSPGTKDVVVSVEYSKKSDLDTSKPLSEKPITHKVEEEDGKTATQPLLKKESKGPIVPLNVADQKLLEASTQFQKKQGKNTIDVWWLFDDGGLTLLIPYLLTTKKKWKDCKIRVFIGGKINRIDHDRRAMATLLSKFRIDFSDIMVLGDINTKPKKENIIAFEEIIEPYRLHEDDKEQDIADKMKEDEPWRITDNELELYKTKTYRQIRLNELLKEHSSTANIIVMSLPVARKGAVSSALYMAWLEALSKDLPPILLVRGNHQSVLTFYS

hNKCC1b = target: T2, hNKCC1b (Homo sapiens, UniProt P55011); conditions: cited from earlier work
T2 sequence (P55011 1-1196 isoform P55011-3): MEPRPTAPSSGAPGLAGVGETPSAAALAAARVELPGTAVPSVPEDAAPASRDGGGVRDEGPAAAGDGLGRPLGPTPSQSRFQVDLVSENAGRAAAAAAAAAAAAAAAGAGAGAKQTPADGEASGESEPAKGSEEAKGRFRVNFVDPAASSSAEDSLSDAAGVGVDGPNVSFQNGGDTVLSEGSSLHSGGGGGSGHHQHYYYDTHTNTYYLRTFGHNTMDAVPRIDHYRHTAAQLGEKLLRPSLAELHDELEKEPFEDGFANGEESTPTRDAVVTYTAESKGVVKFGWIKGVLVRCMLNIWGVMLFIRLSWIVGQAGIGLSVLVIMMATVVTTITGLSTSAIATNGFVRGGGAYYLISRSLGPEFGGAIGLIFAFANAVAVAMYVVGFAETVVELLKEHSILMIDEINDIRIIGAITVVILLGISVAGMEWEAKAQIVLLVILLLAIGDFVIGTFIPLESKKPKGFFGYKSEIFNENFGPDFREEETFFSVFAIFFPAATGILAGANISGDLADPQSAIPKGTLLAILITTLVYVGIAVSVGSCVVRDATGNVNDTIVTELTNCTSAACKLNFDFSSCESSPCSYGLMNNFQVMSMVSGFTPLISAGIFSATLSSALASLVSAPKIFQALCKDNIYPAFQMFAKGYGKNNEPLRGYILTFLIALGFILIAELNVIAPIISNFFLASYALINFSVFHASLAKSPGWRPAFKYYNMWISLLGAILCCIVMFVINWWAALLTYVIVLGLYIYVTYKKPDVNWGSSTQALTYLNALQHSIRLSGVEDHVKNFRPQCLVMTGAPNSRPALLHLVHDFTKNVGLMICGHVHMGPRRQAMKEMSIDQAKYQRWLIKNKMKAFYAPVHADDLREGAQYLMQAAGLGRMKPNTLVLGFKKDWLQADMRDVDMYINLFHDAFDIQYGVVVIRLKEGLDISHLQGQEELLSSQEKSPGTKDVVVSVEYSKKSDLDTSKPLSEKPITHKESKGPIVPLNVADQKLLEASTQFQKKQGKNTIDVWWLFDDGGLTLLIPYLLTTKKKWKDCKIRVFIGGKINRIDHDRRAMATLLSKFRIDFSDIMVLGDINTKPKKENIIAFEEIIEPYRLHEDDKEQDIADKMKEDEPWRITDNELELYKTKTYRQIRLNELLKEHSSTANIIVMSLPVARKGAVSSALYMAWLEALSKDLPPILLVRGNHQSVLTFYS

NKCC2 = target: T3, NKCC2 (Homo sapiens, UniProt Q13621); conditions: cited from earlier work
T3 sequence (Q13621 1-1099): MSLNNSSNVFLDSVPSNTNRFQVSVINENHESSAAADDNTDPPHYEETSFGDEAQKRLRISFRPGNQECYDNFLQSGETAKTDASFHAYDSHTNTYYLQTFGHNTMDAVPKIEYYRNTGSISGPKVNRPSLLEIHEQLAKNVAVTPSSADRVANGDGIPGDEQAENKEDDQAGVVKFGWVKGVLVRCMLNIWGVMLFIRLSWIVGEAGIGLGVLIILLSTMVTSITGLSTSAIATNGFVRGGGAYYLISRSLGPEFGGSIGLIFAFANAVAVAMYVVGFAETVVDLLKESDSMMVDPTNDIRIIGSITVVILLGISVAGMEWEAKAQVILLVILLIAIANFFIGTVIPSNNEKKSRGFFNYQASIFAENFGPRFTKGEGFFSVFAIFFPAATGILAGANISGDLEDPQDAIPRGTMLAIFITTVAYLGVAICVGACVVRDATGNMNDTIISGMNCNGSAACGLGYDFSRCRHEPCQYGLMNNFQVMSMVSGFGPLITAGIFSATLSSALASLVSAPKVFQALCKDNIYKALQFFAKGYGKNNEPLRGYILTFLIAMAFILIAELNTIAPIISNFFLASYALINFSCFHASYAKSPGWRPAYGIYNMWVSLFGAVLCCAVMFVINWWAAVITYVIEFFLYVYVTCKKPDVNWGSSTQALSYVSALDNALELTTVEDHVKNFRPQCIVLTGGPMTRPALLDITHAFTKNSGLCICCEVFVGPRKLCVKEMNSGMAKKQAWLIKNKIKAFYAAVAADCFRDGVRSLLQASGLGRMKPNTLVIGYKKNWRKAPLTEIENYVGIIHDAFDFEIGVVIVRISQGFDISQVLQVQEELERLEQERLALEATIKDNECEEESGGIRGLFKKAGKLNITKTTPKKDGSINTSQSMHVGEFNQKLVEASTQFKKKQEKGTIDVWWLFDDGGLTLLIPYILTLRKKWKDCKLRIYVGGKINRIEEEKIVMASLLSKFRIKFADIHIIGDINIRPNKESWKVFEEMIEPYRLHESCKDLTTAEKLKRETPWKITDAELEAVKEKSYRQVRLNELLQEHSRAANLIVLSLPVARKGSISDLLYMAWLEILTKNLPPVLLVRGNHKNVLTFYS

[1] = Cross-over trial dapagliflozin / bumetanide: weekly urinary excretion (Table 9); format: in vivo, healthy volunteers; conditions: for Ca^++ / Glucose / K^+ / Mg^++ / Na^+ / Urate: urine, Day 1-7
[2] = in vivo; cited from earlier work
[3] = in vivo; cited from earlier work; remark: listed apart in the source
[4] = during the remainder of the day after the dose, high salt intake; cited from earlier work
[5] = in vivo; cited from earlier work; remark: listed apart in the source
[6] = 1 mg; cited from earlier work
[7] = with spironolactone treatment, 12 patients, p<0.05, cited from earlier work
[8] = Americas group, at four months; cited from earlier work
[9] = cited from earlier work

## NS(=O)(=O)c1cc(-c2nnn[nH]2)c(NCc2cccs2)cc1Cl [Azosemide]
hNKCC1a
  pIC50: 6.60
hNKCC1b
  pIC50: 6.68
NKCC2
  pIC50: 5.51

## CCCCNc1cc(C(=O)O)cc(S(N)(=O)=O)c1Oc1ccccc1 [Bumetanide]
[1]; given after one week of dapaglifozin therapy
  greater natriuresis with bumetanide: 36%
[1]
  Ca^++: 667 ± 54 mg-wk^−1
  Glucose: 0.3 ± 0.06 g-wk^−1
  K^+: 454 ± 32 mmol-wk^−1
  Mg^++: 613 ± 48 mg-wk^−1
  Na^+: 669 ± 46 mmol-wk^−1
  Urate: 2249 ± 160 mg-wk^−1
hNKCC1a
  pIC50: 6.02
hNKCC1b
  pIC50: 6.08
NKCC2
  pIC50: 6.60

## Cc1ccc([C@@H]2O[C@H](CO)[C@@H](O)[C@H](O)[C@H]2O)cc1Cc1ccc(-c2ccc(F)cc2)s1 [Canagliflozin]
[2]
  Bioavailability: 65%
  T1/2: 10 h
  Tmax: 1 to 2 h

## CCOc1ccc(Cc2cc([C@@H]3O[C@H](CO)[C@@H](O)[C@H](O)[C@H]3O)ccc2Cl)cc1 [Dapagliflozin]
[1]; given after one week of bumetanide therapy
  greater natriuresis with dapagliflozin: 190%
[1]
  Ca^++: 597 ± 76 mg-wk^−1
  Glucose: 239 ± 20 g-wk^−1
  K^+: 415 ± 24 mmol-wk^−1
  Mg^++: 548 ± 37 mg-wk^−1
  Na^+: 625 ± 15 mmol-wk^−1
  Urate: 3382 ± 187 mg-wk^−1
[2]
  T1/2: 13 h
  Tmax: 1 to 1.5 h

## OC[C@H]1O[C@@H](c2ccc(Cl)c(Cc3ccc(O[C@H]4CCOC4)cc3)c2)[C@H](O)[C@@H](O)[C@@H]1O [Empagliflozin]
[2]
  Bioavailability: 95%
  T1/2: 13 h
  Tmax: 1.5 h

## COC(=O)[C@@H]1CC2=CC(=O)CC[C@]2(C)[C@@]23O[C@@H]2C[C@@]2(C)[C@@H](CC[C@@]24CCC(=O)O4)[C@H]13 [Eplerenone]
[3]
  half-life: 4 to 6 h

## CCOc1ccc(Cc2cc([C@]34OC[C@](CO)(O3)[C@@H](O)[C@H](O)[C@H]4O)ccc2Cl)cc1 [Ertugliflozin]
[2]
  Bioavailability: 87%
  T1/2: 12.5 h
  Tmax: 2 to 3 h

## C=C(CC)C(=O)c1ccc(OCC(=O)O)c(Cl)c1Cl [Ethacrynic acid]
NKCC2
  pIC50: 5.29

## NS(=O)(=O)c1cc(C(=O)O)c(NCc2ccco2)cc1Cl [Furosemide]
NKCC2
  pIC50: 5.29
[4]
  reduction of GFR: circa 23%

## OC[C@H]1O[C@@H](c2ccc(F)c(Cc3cc4ccccc4s3)c2)[C@H](O)[C@@H](O)[C@@H]1O [Ipragliflozin]
[2]
  Bioavailability: 92%
  T1/2: 15 h

## O=C1CC[C@@]2(O)[C@H]3Cc4ccc(O)c5c4[C@@]2(CCN3CC2CC2)[C@H]1O5 [Naltrexone, 17-(cyclopropylmethyl)-4,5-epoxy-3,14-dihydroxymorphinan-6-one]
[5]
  fraction metabolized: > 98%

## COc1cc2nc(N3CCN(C(=O)c4ccco4)CC3)nc(N)c2cc1OC [Prazosin]
[6]
  Oral bioavailability: 56.9%

## CCOc1ccc(Cc2cc([C@@H]3O[C@H](SC)[C@@H](O)[C@H](O)[C@H]3O)ccc2Cl)cc1 [Sotagliflozin]
[2]
  Bioavailability: 70%
  T1/2: 2.5 h
  Tmax: 1.9 h

## CC(=O)S[C@@H]1CC2=CC(=O)CC[C@]2(C)[C@H]2CC[C@@]3(C)[C@@H](CC[C@@]34CCC(=O)O4)[C@H]12 [Spironolactone]
[3]
  half-life: about 1.5 h
  time to steady state concentration: 7 to 10 days
[7]; vs. 13.6±10.8
  hypoxic index: 6.7±6.6 events/h
[7]; vs. 39.8±19.5
  AHI: 22.0±6.8 events/h
[8]
  patients discontinuing the study drug due to hyperkalemia: 25.2%

## CCc1ccc(Cc2ccc3c(c2)[C@]2(OC3)O[C@H](CO)[C@@H](O)[C@H](O)[C@H]2O)cc1 [Tofogliflozin]
[2]
  Bioavailability: 98%
  T1/2: 5.5 h
  Tmax: 1.1 h

## Cc1cccc(Nc2ccncc2S(=O)(=O)NC(=O)NC(C)C)c1 [Torsemide]
hNKCC1a
  pIC50: 5.21
hNKCC1b
  pIC50: 5.09
NKCC2
  pIC50: 6.52
[9]; in vivo
  Bioavailability: 80-100%
  duration of action: 3 to 5 h
[9]; unchanged in chronic renal failure
  plasma half-life: 3 to 5 h

## C[C@]12CCC(=O)C=C1C=C[C@@H]1[C@@H]2CC[C@@]2(C)[C@H]1CC[C@@]21CCC(=O)O1 [canrenone]
[3]
  half-life: more than 15 hours
